Consider 2 compounds from patent publication US20170190705A1, “Compositions and Methods for Inhibiting BMP” (THE BRIGHAM AND WOMAN'S HOSPITAL, INC., priority 2014, published 2017).

The target of one test is PLK1 (Homo sapiens, UniProt P53350). The test is described as follows: Kinome profiling PLK1. The format is biochemical. The note with it: read-out: Inhibitory activity PLK1; for inhibition at 0.1 µM: 100 nM. As for the experimental part: (§1) . The kinome-wide selectivity was determined following the methods previously reported by Mohedas et al., ACS Chem Biol 2013, 8, 1291-1302 and Sanvitale et al., PLoS One 2013, 8, e62721.

A further test concerns the target T1, IKK-α (Homo sapiens, UniProt O15111).
T1 sequence (O15111 1-745): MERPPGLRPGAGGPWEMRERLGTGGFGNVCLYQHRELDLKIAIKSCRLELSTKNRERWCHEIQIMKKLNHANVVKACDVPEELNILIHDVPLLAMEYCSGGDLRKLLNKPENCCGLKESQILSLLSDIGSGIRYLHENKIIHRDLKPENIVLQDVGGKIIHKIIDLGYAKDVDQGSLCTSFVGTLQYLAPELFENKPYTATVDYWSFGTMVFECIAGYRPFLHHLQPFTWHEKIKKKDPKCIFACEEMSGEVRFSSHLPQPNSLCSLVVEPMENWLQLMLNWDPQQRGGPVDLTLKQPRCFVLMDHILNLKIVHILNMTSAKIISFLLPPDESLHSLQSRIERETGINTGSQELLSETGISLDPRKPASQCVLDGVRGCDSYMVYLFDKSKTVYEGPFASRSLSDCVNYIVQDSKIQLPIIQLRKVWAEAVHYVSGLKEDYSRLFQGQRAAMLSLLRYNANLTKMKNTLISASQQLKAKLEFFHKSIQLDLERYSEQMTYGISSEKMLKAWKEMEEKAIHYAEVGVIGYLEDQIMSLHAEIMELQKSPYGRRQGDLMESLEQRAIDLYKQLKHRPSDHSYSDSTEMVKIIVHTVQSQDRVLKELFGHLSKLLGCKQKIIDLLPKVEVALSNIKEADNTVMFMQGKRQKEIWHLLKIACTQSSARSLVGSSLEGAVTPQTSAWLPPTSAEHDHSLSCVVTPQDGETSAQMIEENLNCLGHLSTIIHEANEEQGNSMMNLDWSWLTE
The test is described as follows: Kinome profiling IKK-α. The settings on record: read-out: Inhibitory activity IKK-α; for inhibition at 0.1 µM: 100 nM. The format is biochemical. As for the experimental part:
as §1

The target of another test is PDGFRα (Homo sapiens, UniProt P16234). Nature of the test: Kinome profiling PDGFRα. The format is biochemical. The settings on record: read-out: Inhibitory activity PDGFRα; for inhibition at 0.1 µM: 100 nM. As for the experimental part: as §1
The target in another test is TYK2 (Homo sapiens, UniProt P29597). Nature of the test: Kinome profiling TYK2. The format is biochemical. The settings on record: read-out: Inhibitory activity TYK2; for inhibition at 0.1 µM: 100 nM. As for the experimental part:
as §1

Another test has as its target T2, AURORA-A (Homo sapiens, UniProt O14965).
T2 sequence (O14965 1-403): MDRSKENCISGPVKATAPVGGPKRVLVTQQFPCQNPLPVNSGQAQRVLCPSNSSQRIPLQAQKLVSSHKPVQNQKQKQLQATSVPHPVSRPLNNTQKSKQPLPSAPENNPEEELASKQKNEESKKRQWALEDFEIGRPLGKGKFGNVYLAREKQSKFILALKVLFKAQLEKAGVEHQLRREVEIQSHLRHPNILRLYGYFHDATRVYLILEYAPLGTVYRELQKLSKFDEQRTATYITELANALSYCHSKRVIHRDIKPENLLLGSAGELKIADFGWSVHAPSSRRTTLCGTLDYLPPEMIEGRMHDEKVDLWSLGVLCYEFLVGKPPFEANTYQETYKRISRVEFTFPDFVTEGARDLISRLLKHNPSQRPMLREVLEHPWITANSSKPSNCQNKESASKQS
Nature of the test: Kinome profiling AURORA-A. The format is biochemical. The settings on record: read-out: Inhibitory activity AURORA-A; for inhibition at 0.1 µM: 100 nM. As for the experimental part: as §1

The target of another test is PIM-2 (Homo sapiens, UniProt Q9P1W9). Nature of the test: Kinome profiling PIM-2. The format is biochemical. The note with it: read-out: Inhibitory activity PIM-2; for inhibition at 0.1 µM: 100 nM. On the procedure: as §1
The target in a further test is T3, SGK3 (Homo sapiens, UniProt Q96BR1).
T3 sequence (Q96BR1 1-496): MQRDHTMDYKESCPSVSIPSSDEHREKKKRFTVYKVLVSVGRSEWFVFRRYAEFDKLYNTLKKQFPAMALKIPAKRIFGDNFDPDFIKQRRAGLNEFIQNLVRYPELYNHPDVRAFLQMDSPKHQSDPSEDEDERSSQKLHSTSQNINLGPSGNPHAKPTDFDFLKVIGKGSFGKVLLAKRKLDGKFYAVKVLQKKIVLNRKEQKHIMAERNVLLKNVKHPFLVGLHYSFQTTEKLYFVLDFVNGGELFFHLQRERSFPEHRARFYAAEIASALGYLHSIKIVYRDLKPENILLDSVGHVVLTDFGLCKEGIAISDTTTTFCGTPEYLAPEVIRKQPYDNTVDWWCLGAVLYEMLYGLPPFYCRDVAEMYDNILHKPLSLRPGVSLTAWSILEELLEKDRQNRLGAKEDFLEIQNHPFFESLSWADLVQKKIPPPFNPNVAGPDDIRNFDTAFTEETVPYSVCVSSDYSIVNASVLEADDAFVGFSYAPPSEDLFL
Nature of the test: Kinome profiling SGK3. The format is biochemical. The settings on record: read-out: Inhibitory activity SGK3; for inhibition at 0.1 µM: 100 nM. As for the experimental part:
as §1

For the next test, the target named is T4, ALK2 (Homo sapiens, UniProt Q04771, Q207D).
T4 construct: His tag (TEV-cleavable) (N, cleaved yes); made in house; host or cells: Sf9 insect cells (baculovirus)
T4 sequence (Q04771 201-499 Q207D): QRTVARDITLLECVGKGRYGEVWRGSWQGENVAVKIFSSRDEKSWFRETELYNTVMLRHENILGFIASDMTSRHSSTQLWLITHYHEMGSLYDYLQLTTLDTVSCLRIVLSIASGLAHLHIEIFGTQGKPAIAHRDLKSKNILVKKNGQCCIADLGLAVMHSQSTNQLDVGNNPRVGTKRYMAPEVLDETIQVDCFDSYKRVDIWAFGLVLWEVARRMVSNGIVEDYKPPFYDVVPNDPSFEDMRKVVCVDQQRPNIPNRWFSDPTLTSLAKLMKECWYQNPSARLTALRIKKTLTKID
The test is described as follows: Thermal shift kinase assay ALK2. The format is binding. The settings on record: for ΔTm at 10 µM: 10 μM inhibitor; for ΔTmDiff.: ALK2 minus ALK5; for ΔT ALK2: Table 6; for ΔT Diff.: Table 6, ALK2 minus ALK5. Summed up:
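Differential scanning fluorimetry on recombinant human kinase domains at 1-2 μM protein with 10 μM inhibitor, measuring ligand-induced shift in thermal melting temperature by real-time PCR instrument.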

Chain of PDGFRα (P16234 24-1089): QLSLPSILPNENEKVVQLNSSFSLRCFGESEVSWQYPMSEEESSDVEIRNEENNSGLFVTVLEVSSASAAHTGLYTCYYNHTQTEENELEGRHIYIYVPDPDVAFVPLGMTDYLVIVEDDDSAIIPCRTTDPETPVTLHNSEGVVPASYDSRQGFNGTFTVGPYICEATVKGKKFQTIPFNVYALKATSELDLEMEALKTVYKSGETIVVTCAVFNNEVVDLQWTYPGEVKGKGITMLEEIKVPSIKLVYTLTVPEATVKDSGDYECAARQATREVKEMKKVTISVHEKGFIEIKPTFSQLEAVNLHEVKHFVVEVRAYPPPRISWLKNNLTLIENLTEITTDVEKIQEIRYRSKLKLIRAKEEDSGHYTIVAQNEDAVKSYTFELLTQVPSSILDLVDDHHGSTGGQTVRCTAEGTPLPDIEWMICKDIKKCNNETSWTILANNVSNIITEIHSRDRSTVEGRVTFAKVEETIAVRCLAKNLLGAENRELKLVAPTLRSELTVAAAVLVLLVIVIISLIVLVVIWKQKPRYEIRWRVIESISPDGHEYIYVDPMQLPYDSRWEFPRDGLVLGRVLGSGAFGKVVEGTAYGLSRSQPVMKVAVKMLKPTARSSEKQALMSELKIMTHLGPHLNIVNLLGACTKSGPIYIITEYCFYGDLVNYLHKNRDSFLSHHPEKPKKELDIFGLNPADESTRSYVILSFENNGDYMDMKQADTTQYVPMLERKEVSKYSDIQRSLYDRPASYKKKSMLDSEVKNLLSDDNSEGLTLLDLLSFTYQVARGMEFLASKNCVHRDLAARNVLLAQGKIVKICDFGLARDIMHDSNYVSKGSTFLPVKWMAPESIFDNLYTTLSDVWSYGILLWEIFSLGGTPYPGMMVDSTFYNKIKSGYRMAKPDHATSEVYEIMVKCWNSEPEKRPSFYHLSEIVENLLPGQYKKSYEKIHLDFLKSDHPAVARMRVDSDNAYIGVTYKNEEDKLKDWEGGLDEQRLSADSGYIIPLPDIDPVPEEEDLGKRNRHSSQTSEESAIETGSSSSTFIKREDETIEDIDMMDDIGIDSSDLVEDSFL
Chain of PLK1 (P53350 whole entry): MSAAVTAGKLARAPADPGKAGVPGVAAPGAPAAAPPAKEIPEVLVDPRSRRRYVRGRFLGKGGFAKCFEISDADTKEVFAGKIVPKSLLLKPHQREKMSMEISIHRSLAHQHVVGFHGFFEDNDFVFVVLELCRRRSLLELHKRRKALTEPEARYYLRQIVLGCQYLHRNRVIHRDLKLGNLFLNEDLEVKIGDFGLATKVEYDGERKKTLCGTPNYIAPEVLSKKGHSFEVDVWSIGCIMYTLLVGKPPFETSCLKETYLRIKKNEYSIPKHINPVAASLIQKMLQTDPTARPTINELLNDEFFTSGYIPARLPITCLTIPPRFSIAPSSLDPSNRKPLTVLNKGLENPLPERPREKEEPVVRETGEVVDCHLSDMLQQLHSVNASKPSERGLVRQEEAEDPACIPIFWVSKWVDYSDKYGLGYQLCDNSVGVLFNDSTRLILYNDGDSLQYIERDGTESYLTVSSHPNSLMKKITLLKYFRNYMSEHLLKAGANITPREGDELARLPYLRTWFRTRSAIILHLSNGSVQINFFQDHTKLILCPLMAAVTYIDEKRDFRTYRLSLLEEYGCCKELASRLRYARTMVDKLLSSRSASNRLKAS
Chain of TYK2 (P29597 whole entry): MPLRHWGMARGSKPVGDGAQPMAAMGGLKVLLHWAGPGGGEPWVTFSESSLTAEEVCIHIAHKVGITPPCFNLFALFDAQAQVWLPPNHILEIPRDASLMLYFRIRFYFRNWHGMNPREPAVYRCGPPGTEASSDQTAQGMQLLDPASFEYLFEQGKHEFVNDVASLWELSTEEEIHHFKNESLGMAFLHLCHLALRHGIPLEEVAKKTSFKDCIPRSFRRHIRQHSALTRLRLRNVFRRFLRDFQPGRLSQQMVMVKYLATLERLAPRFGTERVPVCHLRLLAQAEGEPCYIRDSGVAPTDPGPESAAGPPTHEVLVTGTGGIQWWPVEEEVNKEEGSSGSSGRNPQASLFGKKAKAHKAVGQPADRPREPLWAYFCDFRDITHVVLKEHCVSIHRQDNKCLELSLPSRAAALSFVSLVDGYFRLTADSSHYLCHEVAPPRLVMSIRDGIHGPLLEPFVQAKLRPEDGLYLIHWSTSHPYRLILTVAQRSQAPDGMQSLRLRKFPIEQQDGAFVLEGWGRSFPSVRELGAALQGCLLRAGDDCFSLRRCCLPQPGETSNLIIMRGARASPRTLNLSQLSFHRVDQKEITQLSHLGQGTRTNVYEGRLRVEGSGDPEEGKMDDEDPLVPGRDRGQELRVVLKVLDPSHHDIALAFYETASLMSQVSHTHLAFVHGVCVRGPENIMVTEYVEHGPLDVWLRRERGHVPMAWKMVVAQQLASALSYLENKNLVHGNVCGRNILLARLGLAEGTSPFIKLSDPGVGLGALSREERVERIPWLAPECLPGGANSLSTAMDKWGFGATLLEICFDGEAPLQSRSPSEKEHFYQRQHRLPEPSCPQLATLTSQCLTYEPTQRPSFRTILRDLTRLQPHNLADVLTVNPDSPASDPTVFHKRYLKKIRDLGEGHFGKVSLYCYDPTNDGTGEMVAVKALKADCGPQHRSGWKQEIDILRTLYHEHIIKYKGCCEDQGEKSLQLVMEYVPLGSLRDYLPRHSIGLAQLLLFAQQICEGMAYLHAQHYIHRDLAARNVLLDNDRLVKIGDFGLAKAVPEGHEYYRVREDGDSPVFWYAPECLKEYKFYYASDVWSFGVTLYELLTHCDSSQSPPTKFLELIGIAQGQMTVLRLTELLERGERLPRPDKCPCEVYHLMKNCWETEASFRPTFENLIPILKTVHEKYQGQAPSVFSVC
Chain of PIM-2 (Q9P1W9 whole entry): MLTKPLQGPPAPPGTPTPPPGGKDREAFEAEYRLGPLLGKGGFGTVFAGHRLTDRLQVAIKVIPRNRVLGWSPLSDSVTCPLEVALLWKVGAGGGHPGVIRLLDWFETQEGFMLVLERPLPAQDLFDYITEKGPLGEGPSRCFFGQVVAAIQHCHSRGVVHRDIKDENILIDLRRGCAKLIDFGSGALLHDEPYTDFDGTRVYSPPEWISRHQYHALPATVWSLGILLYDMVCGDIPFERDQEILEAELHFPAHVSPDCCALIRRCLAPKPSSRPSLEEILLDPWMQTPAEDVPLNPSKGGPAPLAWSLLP

Turning to `COc1cc(-c2cc(-c3ccc(N4CCNCC4)cc3)cnc2C)cc(OC)c1OC` [Compound 10, 1-(4-(6-methyl-5-(3,4,5-trimethoxyphenyl)pyridin-3-yl)phenyl)piperazine], the inhibition at 0.1 µM was 4% at PLK1; 3% on IKK-α; 9% at PDGFRα; 2% at TYK2; 2% on AURORA-A; 0% on PIM-2. At SGK3, the inhibition at 0.1 µM is 3%. Besides, the inhibition at 1 µM on PLK1 is 3%; on IKK-α it was 4%; on PDGFRα, 40%; on TYK2, 1%; on AURORA-A, 3%; at PIM-2 it was 0%. For the same compound, at SGK3, the inhibition at 1 µM is 11%. Moreover, at ALK2, the ΔTm at 10 µM came out at 13.7 °C. Moreover, on ALK2, the ΔTmDiff. was 4.0. Further, the “ΔT ALK2” value at ALK2 worked out at 13.7 °C. The “ΔT Diff.” value on ALK2 amounted to 4.0 °C.

With `COc1cc(-c2cc(-c3ccc(N4CCNCC4)cc3)cnc2N)cc(OC)c1OC` [Compound 15, 5-(4-(piperazin-1-yl)phenyl)-3-(3,4,5-trimethoxyphenyl)pyridin-2-amine], the inhibition at 0.1 µM on PLK1 is 3%; at IKK-α it was -1%; on PDGFRα, 39%; at TYK2, 0%; on AURORA-A, 2%; at PIM-2 it was 0%. For the same compound, at SGK3, the inhibition at 0.1 µM was -8%. The inhibition at 1 µM was 1% on PLK1; -2% at IKK-α; 76% on PDGFRα; 0% on TYK2; 3% at AURORA-A; 0% at PIM-2. For the same compound, the inhibition at 1 µM on SGK3 was determined as 3%. The shift in melting temperature (ΔTm) at 10 µM at ALK2 turned out to be 15.1 °C. In addition, the ΔTmDiff. on ALK2 was determined as 1.2. In addition, on ALK2, the “ΔT ALK2” value came out at 15.1 °C. Also, on ALK2, the “ΔT Diff.” value was determined as 1.2 °C.

By ΔTm is commonly meant the change in melting temperature against a reference sample.
